# What was measured:
# [1] = Rate constant (k) of clearance from isolated perfused rat liver (IPRL); format: ADME
# [2] = target: T1, Integrin alpha-4/beta-1 (Homo sapiens, UniProt P05556+P13612); test: Inhibition of binding of Very late antigen 4/vascular cell adhesion molecule 1 in a cell based ligand binding assay (Jurkat cells)
# [3] = target: T1, Integrin alpha-4/beta-1; test: Inhibition of binding of Very late antigen 4/vascular cell adhesion molecule 1 in a protein-based ligand binding assay; format: protein-complex assay
# [4] = target: T1, Integrin alpha-4/beta-1; test: Inhibition of Jurkat cell VLA-4 adhesion to VCAM-1; format: cell-based
# [5] = target: T1, Integrin alpha-4/beta-1; test: Inhibition of very late antigen-4 (VLA-4)/vascular cell adhesion molecule-1(VCAM -1) interaction; format: protein-complex assay
# T1 sequence (P05556 whole entry): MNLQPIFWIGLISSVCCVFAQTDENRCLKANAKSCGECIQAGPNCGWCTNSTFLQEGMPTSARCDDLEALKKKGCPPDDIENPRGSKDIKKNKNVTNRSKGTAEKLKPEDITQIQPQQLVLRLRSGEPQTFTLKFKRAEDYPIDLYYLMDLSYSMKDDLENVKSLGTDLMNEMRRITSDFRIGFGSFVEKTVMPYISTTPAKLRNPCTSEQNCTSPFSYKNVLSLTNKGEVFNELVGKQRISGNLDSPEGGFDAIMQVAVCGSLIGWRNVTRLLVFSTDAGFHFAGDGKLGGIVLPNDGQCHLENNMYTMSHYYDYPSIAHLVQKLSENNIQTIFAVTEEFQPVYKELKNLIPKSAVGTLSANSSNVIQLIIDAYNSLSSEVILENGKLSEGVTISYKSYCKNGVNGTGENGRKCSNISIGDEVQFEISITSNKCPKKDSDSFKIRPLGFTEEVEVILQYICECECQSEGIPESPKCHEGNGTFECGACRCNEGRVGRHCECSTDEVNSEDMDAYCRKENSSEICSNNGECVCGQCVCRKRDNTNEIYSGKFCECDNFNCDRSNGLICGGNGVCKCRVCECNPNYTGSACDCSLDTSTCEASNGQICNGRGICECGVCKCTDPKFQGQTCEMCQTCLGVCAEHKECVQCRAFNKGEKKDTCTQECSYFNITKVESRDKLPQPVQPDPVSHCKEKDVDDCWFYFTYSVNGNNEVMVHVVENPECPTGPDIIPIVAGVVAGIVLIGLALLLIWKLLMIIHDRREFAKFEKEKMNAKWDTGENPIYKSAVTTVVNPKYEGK
# T1 sequence (P13612 whole entry): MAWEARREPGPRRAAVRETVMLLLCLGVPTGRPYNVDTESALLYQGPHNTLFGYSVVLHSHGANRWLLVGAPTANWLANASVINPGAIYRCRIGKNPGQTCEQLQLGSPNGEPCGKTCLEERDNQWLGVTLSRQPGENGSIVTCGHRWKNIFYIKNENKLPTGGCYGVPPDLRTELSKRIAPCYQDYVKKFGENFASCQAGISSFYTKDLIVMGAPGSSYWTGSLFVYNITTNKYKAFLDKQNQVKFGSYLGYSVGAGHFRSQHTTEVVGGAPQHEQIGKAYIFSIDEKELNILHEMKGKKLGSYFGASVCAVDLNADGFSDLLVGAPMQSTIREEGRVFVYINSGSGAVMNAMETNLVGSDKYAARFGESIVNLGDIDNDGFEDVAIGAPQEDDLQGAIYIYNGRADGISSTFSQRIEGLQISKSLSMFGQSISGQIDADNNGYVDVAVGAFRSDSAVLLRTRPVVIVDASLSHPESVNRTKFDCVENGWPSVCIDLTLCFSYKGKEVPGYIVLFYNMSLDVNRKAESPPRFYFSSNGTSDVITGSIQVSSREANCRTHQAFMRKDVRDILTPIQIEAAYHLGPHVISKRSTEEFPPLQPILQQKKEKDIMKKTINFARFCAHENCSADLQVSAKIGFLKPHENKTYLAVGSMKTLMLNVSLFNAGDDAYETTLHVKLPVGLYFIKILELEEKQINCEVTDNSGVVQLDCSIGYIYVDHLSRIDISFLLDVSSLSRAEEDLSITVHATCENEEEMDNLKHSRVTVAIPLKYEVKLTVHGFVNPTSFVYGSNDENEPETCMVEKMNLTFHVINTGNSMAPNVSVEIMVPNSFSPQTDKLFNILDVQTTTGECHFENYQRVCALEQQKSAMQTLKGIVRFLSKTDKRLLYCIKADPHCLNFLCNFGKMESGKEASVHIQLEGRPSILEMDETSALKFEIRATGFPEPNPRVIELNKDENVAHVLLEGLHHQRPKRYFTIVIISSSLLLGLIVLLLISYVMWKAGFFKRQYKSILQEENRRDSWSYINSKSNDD
k el [1] [s⁻¹],IC50 [2] [nM],IC50 [3] [nM],IC50 [4] [nM],IC50 [5] [nM],SMILES
0.000444,250,1.5,,,O=C(Nc1ccc(C[C@H](/N=c2\c(O)c(O)\c2=N/C2CC2)C(=O)O)cc1)c1c(Cl)cncc1Cl
0.00117,320,3.7,,,O=C(Nc1ccc(C[C@H](/N=c2\c(O)c(O)\c2=N/Cc2ccccc2)C(=O)O)cc1)c1c(Cl)cncc1Cl
0.00103,60,0.5,,,CCN1CCN(c2c(N[C@@H](Cc3ccc(NC(=O)c4c(Cl)cncc4Cl)cc3)C(=O)O)c(=O)c2=O)CC1
0.00125,13,0.2,,,CCCN(C)c1c(N[C@@H](Cc2ccc(NC(=O)c3c(Cl)cncc3Cl)cc2)C(=O)O)c(=O)c1=O
2.78e-05,120,1.5,,,CCC/N=c1\c(O)c(O)\c1=N/[C@@H](Cc1ccc(NC(=O)c2c(Cl)cncc2Cl)cc1)C(=O)O
0.00025,990,0.9,,,C/N=c1\c(O)c(O)\c1=N/[C@@H](Cc1ccc(NC(=O)c2c(Cl)cncc2Cl)cc1)C(=O)O
0.000861,160,0.5,,,CCC(C)/N=c1\c(O)c(O)\c1=N/[C@@H](Cc1ccc(NC(=O)c2c(Cl)cncc2Cl)cc1)C(=O)O (stereo partly drawn)
0.0005,75,1.2,,,COCC/N=c1\c(O)c(O)\c1=N/[C@@H](Cc1ccc(NC(=O)c2c(Cl)cncc2Cl)cc1)C(=O)O
0.000722,95,1,,,CC(C)/N=c1\c(O)c(O)\c1=N/[C@@H](Cc1ccc(NC(=O)c2c(Cl)cncc2Cl)cc1)C(=O)O
0.00136,100,0.2,,,CCN(C)c1c(N[C@@H](Cc2ccc(NC(=O)c3c(Cl)cncc3Cl)cc2)C(=O)O)c(=O)c1=O
0.00139,11,0.5,,,O=C(Nc1ccc(C[C@H](/N=c2/c(N3CCOCC3)c(O)c2=O)C(=O)O)cc1)c1c(Cl)cncc1Cl
0.00161,3.5,0.4,,,CCN(CC)c1c(N[C@@H](Cc2ccc(NC(=O)c3c(Cl)cncc3Cl)cc2)C(=O)O)c(=O)c1=O
0.00158,3.1,0.3,,,O=C(Nc1ccc(C[C@H](/N=c2/c(N3CCSCC3)c(O)c2=O)C(=O)O)cc1)c1c(Cl)cncc1Cl
,10800,6.7,,,CCC/N=c1\c(O)c(O)\c1=N/[C@@H](Cc1ccc(-c2ccccc2OC)cc1)C(=O)O
0.00183,5.7,2,,,CCCCN(CCCC)c1c(N[C@@H](Cc2ccc(NC(=O)c3c(Cl)cncc3Cl)cc2)C(=O)O)c(=O)c1=O
0.00108,180,0.6,,,CCN(CC)c1c(N[C@@H](Cc2ccc(-c3c(OC)cccc3OC)cc2)C(=O)O)c(=O)c1=O
0.000361,130,0.4,,,CCCC/N=c1\c(O)c(O)\c1=N/[C@@H](Cc1ccc(NC(=O)c2c(Cl)cncc2Cl)cc1)C(=O)O
0.00108,12400,25,,,CCN(CC)c1c(N[C@@H](Cc2ccc(OCc3c(Cl)cccc3Cl)cc2)C(=O)O)c(=O)c1=O
0.000389,90,,,,O=C(Nc1ccc(C[C@H](/N=c2\c(O)c(O)\c2=N/CCC(F)(F)F)C(=O)O)cc1)c1c(Cl)cncc1Cl

k el [1] [s⁻¹],IC50 [2] [nM],IC50 [3] [nM],IC50 [4] [nM],IC50 [5] [nM],SMILES
0.000972,690,3.5,,,CC(C)(C)/N=c1\c(O)c(O)\c1=N/[C@@H](Cc1ccc(NC(=O)c2c(Cl)cncc2Cl)cc1)C(=O)O
0.000556,425,0.6,,,CC/N=c1\c(O)c(O)\c1=N/[C@@H](Cc1ccc(NC(=O)c2c(Cl)cncc2Cl)cc1)C(=O)O
0.000667,50,0.6,,,CCCC(C)/N=c1\c(O)c(O)\c1=N/[C@@H](Cc1ccc(NC(=O)c2c(Cl)cncc2Cl)cc1)C(=O)O (stereo partly drawn)
0.000306,845,50,,,O=C(Nc1ccc(C[C@H](/N=c2\c(O)c(O)\c2=N/c2ccccc2)C(=O)O)cc1)c1c(Cl)cncc1Cl
0.00125,40,0.4,,,O=C(Nc1ccc(C[C@H](/N=c2/c(N3CCNCC3)c(O)c2=O)C(=O)O)cc1)c1c(Cl)cncc1Cl
0.000139,290,9,,,O=C(Nc1ccc(C[C@H](/N=c2\c(O)c(O)\c2=N/C2CCCC2)C(=O)O)cc1)c1c(Cl)cncc1Cl
0.00131,8.4,0.4,,,O=C(Nc1ccc(C[C@H](/N=c2/c(N3CCCCC3)c(O)c2=O)C(=O)O)cc1)c1c(Cl)cncc1Cl
0.00075,2300,1.5,,,CCN(CC)c1c(N[C@@H](Cc2ccc(Oc3ncccn3)cc2)C(=O)O)c(=O)c1=O
0.000167,8200,6.9,,,CCC/N=c1\c(O)c(O)\c1=N/[C@@H](Cc1ccc(Oc2ncccn2)cc1)C(=O)O
0.000139,155,2.6,,,O=C(Nc1ccc(C[C@H](/N=c2\c(O)c(O)\c2=N/C2CCC2)C(=O)O)cc1)c1c(Cl)cncc1Cl
,,,18300,67,CCC/N=c1\c(O)c(O)\c1=N/[C@@H](Cc1ccc(OCc2c(Cl)cccc2Cl)cc1)C(=O)O
0.00128,590,0.5,,,CN(C)c1c(N[C@@H](Cc2ccc(NC(=O)c3c(Cl)cncc3Cl)cc2)C(=O)O)c(=O)c1=O
0.000361,85,0.5,,,CC(C)C/N=c1\c(O)c(O)\c1=N/[C@@H](Cc1ccc(NC(=O)c2c(Cl)cncc2Cl)cc1)C(=O)O
0.00025,225,1,,,CCCCC/N=c1\c(O)c(O)\c1=N/[C@@H](Cc1ccc(NC(=O)c2c(Cl)cncc2Cl)cc1)C(=O)O
0.000306,370,1,,,O=C(Nc1ccc(C[C@H](/N=c2\c(O)c(O)\c2=N/CCCC(F)(F)F)C(=O)O)cc1)c1c(Cl)cncc1Cl
0.000194,710,2.1,,,CCC/N=c1\c(O)c(O)\c1=N/[C@@H](Cc1ccc(-c2c(OC)cccc2OC)cc1)C(=O)O
0.000611,1160,1.2,,,CCN(CC)c1c(N[C@@H](Cc2ccc(-c3ccccc3OC)cc2)C(=O)O)c(=O)c1=O
0.000111,120,1,,,C=CC/N=c1\c(O)c(O)\c1=N/[C@@H](Cc1ccc(NC(=O)c2c(Cl)cncc2Cl)cc1)C(=O)O

# — ChEMBL document CHEMBL1135265, “Squaric acid derivatives as VLA-4 integrin antagonists” (Bioorg Med Chem Lett, 2002)
